Experimental data from ChEMBL document CHEMBL1147970, “Enzymatic synthesis of arbutin undecylenic acid ester and its inhibitory effect on melanin synthesis” (2007).
The source made the active and inactive calls. No cut-off for these calls is given here.

Tested on: B16
Assay: Antimelanogenic activity in mouse B16 cells at 0.1 mM after 6 days relative to control
Assay type: functional

Compound	Activity
C=CCCCCCCCCC(=O)OC[C@H]1O[C@@H](Oc2ccc(O)cc2)[C@H](O)[C@@H](O)[C@@H]1O	30%
OC[C@H]1O[C@@H](Oc2ccc(O)cc2)[C@H](O)[C@@H](O)[C@@H]1O	inactive
